# In publication PMC1839166, “Type III Effector Activation via Nucleotide Binding, Phosphorylation, and Host Target Interaction” (PLoS Pathogens, 2007):
# Molecular target: T1, AvrB (Pseudomonas savastanoi, UniProt P13835)
# T1 construct: recombinant in E. coli BL21 Rosetta from pProEX-HTa; N-terminal His tag removed with TEV protease; residues 16 to 319 modelled in the ADP complex; 36 kDa
# Experiment: X-ray crystallography, crystal soak
# Assay type: binding
# Details: 5 mM nucleotide soak about 1 d, pH 7.5, with and without 5 mM MgCl2; lower lobe pocket (Y65, R99, R266)
# T1 sequence (P13835 whole entry, the tested form may be a part): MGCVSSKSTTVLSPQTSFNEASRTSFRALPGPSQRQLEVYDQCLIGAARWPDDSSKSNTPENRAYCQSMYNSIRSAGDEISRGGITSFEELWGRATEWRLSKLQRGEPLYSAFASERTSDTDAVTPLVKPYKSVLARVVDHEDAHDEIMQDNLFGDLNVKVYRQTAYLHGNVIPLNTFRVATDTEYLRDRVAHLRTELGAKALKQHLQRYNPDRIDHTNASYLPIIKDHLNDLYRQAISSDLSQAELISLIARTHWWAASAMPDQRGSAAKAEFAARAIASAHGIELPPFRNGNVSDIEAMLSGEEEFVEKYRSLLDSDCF
structure (smiles),measurement,value
Nc1ncnc2c1ncn2[C@@H]1O[C@H](COP(=O)(O)OP(=O)(O)O)[C@@H](O)[C@H]1O [ADP],"X-ray crystallography, crystal soak",We found that crystallized AvrB could bind ADP within the lower lobe pocket
